Experimental data as given in PubChem BioAssay (NCI).
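Each compound was tested at five concentrations against cells in 96-well plates for 48 hours. TGI: total growth inhibition.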

What was measured:
Assay in all cases: DTP human tumour cell line panel, 48 h
[1] = tested on: SK-MEL-2 melanoma
[2] = tested on: SNB-78 CNS
[3] = tested on: HT29 colon
[4] = tested on: UACC-257 melanoma
[5] = tested on: LXFL 529 NSCLC
[6] = tested on: UACC-62 melanoma
[7] = tested on: OVCAR-5 ovarian
[8] = tested on: RXF 393 renal
[9] = tested on: DMS 114 small cell lung
[10] = tested on: HOP-92 NSCLC
[11] = tested on: KM20L2 colon
[12] = tested on: OVCAR-3 ovarian
[13] = tested on: NCI-H460 lung
[14] = tested on: SF-268 CNS
[15] = tested on: A498 renal
[16] = tested on: UO-31 renal
[17] = tested on: SK-OV-3 ovarian
[18] = tested on: M14 melanoma
[19] = tested on: K-562 leukemia
[20] = tested on: M19-MEL melanoma
[21] = tested on: KM12 colon
[22] = tested on: SF-295 CNS
[23] = tested on: MALME-3M melanoma
[24] = tested on: ACHN renal
[25] = tested on: COLO 205 colon
[26] = tested on: RPMI-8226 leukemia
[27] = tested on: HCT-116 colon
[28] = tested on: U251 CNS
[29] = tested on: SNB-19 CNS
[30] = tested on: IGROV1 ovarian
[31] = tested on: SF-539 CNS
[32] = tested on: SNB-75 CNS
[33] = tested on: SK-MEL-28 melanoma
[34] = tested on: HOP-62 NSCLC
[35] = tested on: OVCAR-4 ovarian
[36] = tested on: NCI-H23 lung
[37] = tested on: SW-620 colon
[38] = tested on: NCI-H522 lung
[39] = tested on: EKVX NSCLC
[40] = tested on: LOX IMVI melanoma
[41] = tested on: DMS 273 small cell lung
[42] = tested on: CCRF-CEM leukemia
[43] = tested on: 786-0 renal
[44] = tested on: HOP-18 NSCLC
[45] = tested on: OVCAR-8 ovarian
[46] = tested on: MOLT-4 leukemia
[47] = tested on: A549 NSCLC
[48] = tested on: SN12C renal
[49] = tested on: TK-10 renal
[50] = tested on: NCI-H226 lung
[51] = tested on: HCT-15 colon
[52] = tested on: SK-MEL-5 melanoma
[53] = tested on: SR leukemia
[54] = tested on: HL-60(TB) leukemia

Measured: TGI

CCOP(=O)(OCC)/C(C#N)=C/c1cc(O)ccc1O
not listed: [37] | [38] | [39] | [40] | [41] | [42] | [43] | [44] | [45] | [46] | [47] | [48] | [49] | [50] | [51] | [52] | [53] | [54]
> 100 µM: all other assays above

CC(=O)O[C@]12CCCCC1C1(O)C(O)CCCC[C@H]12 (some centres undefined)
not listed: [7] | [10] | [12] | [15] | [30] | [31]
> 100 µM: all other assays above
